According to PubChem BioAssay AID624008 (Vanderbilt Specialized Chemistry Center, 2012):
Activity calls are given as the source filed them. How the calls were made is not given here.

target: Phospholipase D1 (Homo sapiens) + Phospholipase D1 (Homo sapiens) (UniProt Q13393+Q13393); experiment: cellular PLD1 inhibitors, Calu-1 cells, Lib32, assay 1A (AID 624008); details: percent of control, stronger effect = lower value, concentration not given here
Sequence (Q13393 whole entry, looked up): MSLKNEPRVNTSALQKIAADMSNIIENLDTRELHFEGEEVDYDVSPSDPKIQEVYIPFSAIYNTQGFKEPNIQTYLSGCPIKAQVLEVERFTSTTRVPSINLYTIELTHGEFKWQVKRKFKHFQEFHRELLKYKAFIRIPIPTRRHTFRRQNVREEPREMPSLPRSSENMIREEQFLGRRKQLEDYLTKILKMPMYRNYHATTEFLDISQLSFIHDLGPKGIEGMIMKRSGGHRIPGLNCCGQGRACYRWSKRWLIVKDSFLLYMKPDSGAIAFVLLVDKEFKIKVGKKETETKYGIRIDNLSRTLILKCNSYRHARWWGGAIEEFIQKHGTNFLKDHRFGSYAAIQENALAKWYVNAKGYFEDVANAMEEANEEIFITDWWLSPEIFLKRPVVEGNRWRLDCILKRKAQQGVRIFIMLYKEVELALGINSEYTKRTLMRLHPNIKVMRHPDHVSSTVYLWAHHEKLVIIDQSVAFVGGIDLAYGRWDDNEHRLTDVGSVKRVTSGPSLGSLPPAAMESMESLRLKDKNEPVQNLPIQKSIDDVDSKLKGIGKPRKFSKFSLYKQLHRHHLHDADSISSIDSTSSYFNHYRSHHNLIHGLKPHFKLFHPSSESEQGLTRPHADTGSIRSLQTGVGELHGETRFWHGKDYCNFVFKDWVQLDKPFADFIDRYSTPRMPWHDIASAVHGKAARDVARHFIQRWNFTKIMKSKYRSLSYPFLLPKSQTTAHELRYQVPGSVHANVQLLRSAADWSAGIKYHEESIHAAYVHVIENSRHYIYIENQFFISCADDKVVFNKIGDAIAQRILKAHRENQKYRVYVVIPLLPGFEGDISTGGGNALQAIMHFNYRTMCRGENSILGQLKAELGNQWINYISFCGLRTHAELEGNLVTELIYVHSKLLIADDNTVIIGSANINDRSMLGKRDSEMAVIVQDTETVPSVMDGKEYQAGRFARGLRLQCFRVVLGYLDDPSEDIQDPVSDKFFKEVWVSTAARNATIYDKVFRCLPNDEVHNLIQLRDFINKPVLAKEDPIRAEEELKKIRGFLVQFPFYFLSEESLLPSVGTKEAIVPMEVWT
Sequence (Q13393 whole entry, looked up): as above

| Compound | remaining activity |
| --- | --- |
| C[C@@H](CN1CCC2(CC1)C(=O)NCN2c1cccc(F)c1)NC(=O)c1ccc(F)cc1 | 24% |
| O=C(NCCN1CCC2(CC1)C(=O)NCN2c1cccc(F)c1)c1ccccc1I | 99.7% (inactive) |
| C[C@@H](CN1CCC2(CC1)C(=O)NCN2c1cccc(F)c1)NC(=O)c1ccc(F)c(F)c1 | 10.1% |
| C[C@@H](CN1CCC2(CC1)C(=O)NCN2c1cccc(F)c1)NC(=O)c1cccc(C(F)(F)F)c1 | 82.3% (inactive) |
| O=C(NCCN1CCC2(CC1)C(=O)NCN2c1cccc(F)c1)c1ccc(Cl)cc1Cl | 107% (inactive) |
| O=C(NCCN1CCC2(CC1)C(=O)NCN2c1cccc(F)c1)c1ccc(F)cc1 | 102% (inactive) |
| C[C@@H](CN1CCC2(CC1)C(=O)NCN2c1cccc(F)c1)NC(=O)c1cccc([N+](=O)[O-])c1 | 28.6% |
| C[C@@H](CN1CCC2(CC1)C(=O)NCN2c1cccc(F)c1)NC(=O)c1cccc2ccccc12 | 64.5% |
| O=C(NCCN1CCC2(CC1)C(=O)NCN2c1cccc(F)c1)c1c(F)ccc(F)c1Cl | 106% (inactive) |
| O=C(NCCN1CCC2(CC1)C(=O)NCN2c1cccc(F)c1)c1cccc(C(F)(F)F)c1 | 94.8% (inactive) |
| C[C@@H](CN1CCC2(CC1)C(=O)NCN2c1cccc(F)c1)NC(=O)c1c(F)cccc1F | 75.1% |
| O=C(NCCN1CCC2(CC1)C(=O)NCN2c1cccc(F)c1)c1cccc([N+](=O)[O-])c1 | 101% (inactive) |
| COc1cc(C(=O)N[C@@H](C)CN2CCC3(CC2)C(=O)NCN3c2cccc(F)c2)cc(OC)c1OC | 9.86% |
| C[C@@H](CN1CCC2(CC1)C(=O)NCN2c1cccc(F)c1)NC(=O)c1ccccc1I | 91.6% (inactive) |
| O=C(Cc1ccc(F)cc1)NCCN1CCC2(CC1)C(=O)NCN2c1cccc(F)c1 | 99.3% (inactive) |
| C[C@@H](CN1CCC2(CC1)C(=O)NCN2c1cccc(F)c1)NC(=O)c1ccc(F)cc1F | 28.8% |
| O=C(NCCN1CCC2(CC1)C(=O)NCN2c1cccc(F)c1)c1ccc(Br)cc1 | 98.5% (inactive) |
| C[C@@H](CN1CCC2(CC1)C(=O)NCN2c1cccc(F)c1)NC(=O)Cc1ccc(F)cc1 | 102% (inactive) |
| COc1cc(C(=O)NCCN2CCC3(CC2)C(=O)NCN3c2cccc(F)c2)cc(OC)c1OC | 113% (inactive) |
| C[C@@H](CN1CCC2(CC1)C(=O)NCN2c1cccc(F)c1)NC(=O)c1cccc(F)c1 | 45.7% |
| O=C(NCCN1CCC2(CC1)C(=O)NCN2c1cccc(F)c1)c1ccccn1 | 93.5% (inactive) |
| C[C@@H](CN1CCC2(CC1)C(=O)NCN2c1cccc(F)c1)NC(=O)c1ccc(Br)cc1 | 10.2% |
| O=C(NCCN1CCC2(CC1)C(=O)NCN2c1cccc(F)c1)c1ccc(F)cc1F | 99% (inactive) |
| O=C(NCCN1CCC2(CC1)C(=O)NCN2c1cccc(F)c1)c1cccc2ccccc12 | 102% (inactive) |
| O=C(NCCN1CCC2(CC1)C(=O)NCN2c1cccc(F)c1)c1cccc2c1OCO2 | 102% (inactive) |
| C[C@@H](CN1CCC2(CC1)C(=O)NCN2c1cccc(F)c1)NC(=O)c1ccc(Cl)cc1Cl | 71.6% |
| C[C@@H](CN1CCC2(CC1)C(=O)NCN2c1cccc(F)c1)NC(=O)c1c(F)ccc(F)c1Cl | 81.7% (inactive) |
| O=C(c1ccc(F)cc1)N(CCN1CCC2(CC1)C(=O)NCN2c1cccc(F)c1)C(=O)c1ccc(F)cc1 | 109% (inactive) |
